#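 The concentration for 50% growth inhibition is given as GI50. Definition used: TGI = concentration required for complete inhibition of growth.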
# What was measured:
# Test in all cases: inhibition of tumour cell growth, NCI panel, 384-well format
# [1] = system: OVCAR-3 ovarian
# [2] = system: T-47D breast
# [3] = system: MDA-MB-468 breast
# [4] = system: SF-539 CNS
# [5] = system: SNB-19 CNS
# [6] = system: NCI-H23 lung
# [7] = system: HOP-62 NSCLC
# [8] = system: CAKI-1 renal
# [9] = system: COLO 205 colon
# [10] = system: OVCAR-8 ovarian
# [11] = system: RXF 393 renal
# [12] = system: UO-31 renal
# [13] = system: HCT-116 colon
# [14] = system: OVCAR-5 ovarian
# [15] = system: UACC-62 melanoma
# [16] = system: SN12C renal
# [17] = system: U251 glioblastoma
# [18] = system: MOLT-4 leukemia
# [19] = system: ACHN renal
# [20] = system: M14 melanoma
# [21] = system: HOP-92 NSCLC
# [22] = system: SF-295 CNS
# [23] = system: IGROV1 ovarian
# [24] = system: NCI-H322M lung
# [25] = system: MDA-MB-231 breast
# [26] = system: HCC-2998 colon
# [27] = system: SK-OV-3 ovarian
# [28] = system: NCI-H460 NSCLC
# [29] = system: HT29 colon
# [30] = system: NCI/ADR-RES ovarian
# [31] = system: BT-549 breast
# [32] = system: HL-60(TB) leukemia
# [33] = system: EKVX NSCLC
# [34] = system: A498 renal
# [35] = system: 786-0 renal
# [36] = system: NCI-H522 lung
# [37] = system: PC-3 prostate
# [38] = system: A549 NSCLC
# [39] = system: SF-268 CNS
# [40] = system: UACC-257 melanoma
# [41] = system: HS 578T breast
# [42] = system: HCT-15 colon
# [43] = system: MCF7 breast
# [44] = system: LOX IMVI melanoma
# [45] = system: SW-620 colon
# [46] = system: DU-145 prostate
# [47] = system: TK-10 renal
# [48] = system: CCRF-CEM leukemia
# [49] = system: SK-MEL-5 melanoma
# [50] = system: NCI-H226 lung
# [51] = system: MALME-3M melanoma
# [52] = system: SK-MEL-28 melanoma
# [53] = system: OVCAR-4 ovarian
# [54] = system: MDA-MB-435 melanoma
# [55] = system: KM12 colon
# [56] = system: SNB-75 CNS
# [57] = system: RPMI-8226 leukemia
# [58] = system: K-562 leukemia
# [59] = system: SK-MEL-2 melanoma
smiles,measurement,setting,value
CN(CCO)C1CCN(c2ccc(Nc3ncc4c5ccnc(F)c5n(C5CCCC5)c4n3)nc2)CC1,GI50,[1],1.87 µM
same,TGI,[1],3.29 µM
same,GI50,[2],1.88 µM
same,TGI,[2],67.5 µM
same,GI50,[3],1.63 µM
same,TGI,[3],2.99 µM
same,GI50,[4],1.38 µM
same,TGI,[4],2.68 µM
same,GI50,[5],1.37 µM
same,TGI,[5],2.76 µM
same,GI50,[6],1.2 µM
same,TGI,[6],2.46 µM
same,GI50,[7],1.17 µM
same,TGI,[7],2.42 µM
same,GI50,[8],0.868 µM
same,TGI,[8],2.15 µM
same,GI50,[9],0.373 µM
same,TGI,[9],1.95 µM
same,GI50,[10],1.62 µM
same,TGI,[10],3.01 µM
same,GI50,[11],1.28 µM
same,TGI,[11],2.55 µM
same,GI50,[12],1.2 µM
same,TGI,[12],2.45 µM
same,GI50,[13],0.684 µM
same,TGI,[13],2.05 µM
same,GI50,[14],0.885 µM
same,TGI,[14],> 100 µM
same,GI50,[15],1.35 µM
same,TGI,[15],2.64 µM
same,GI50,[16],3.02 µM
same,TGI,[16],14.9 µM
same,GI50,[17],1.12 µM
same,TGI,[17],2.35 µM
same,GI50,[18],0.0624 µM
same,TGI,[18],0.812 µM
same,GI50,[19],1 µM
same,TGI,[19],2.19 µM
same,GI50,[20],1.19 µM
same,TGI,[20],2.44 µM
same,GI50,[21],3.02 µM
same,TGI,[21],15.4 µM
same,GI50,[22],0.881 µM
same,TGI,[22],2.15 µM
same,GI50,[23],1.05 µM
same,TGI,[23],2.26 µM
same,GI50,[24],1.34 µM
same,TGI,[24],2.64 µM
same,GI50,[25],1.26 µM
same,TGI,[25],2.71 µM
same,GI50,[26],0.655 µM
same,TGI,[26],2.01 µM
same,GI50,[27],1.45 µM
same,TGI,[27],2.78 µM
same,GI50,[28],0.188 µM
same,TGI,[28],1.81 µM
same,GI50,[29],1.02 µM
same,TGI,[29],2.23 µM
same,GI50,[30],1.74 µM
same,TGI,[30],3.17 µM
same,GI50,[31],1.49 µM
same,TGI,[31],2.83 µM
same,GI50,[32],0.0521 µM
same,TGI,[32],1.76 µM
same,GI50,[33],1.27 µM
same,TGI,[33],2.56 µM
same,GI50,[34],0.853 µM
same,TGI,[34],2.12 µM
same,GI50,[35],1.15 µM
same,TGI,[35],2.37 µM
same,GI50,[36],1.77 µM
same,TGI,[36],3.17 µM
same,GI50,[37],1.43 µM
same,TGI,[37],2.79 µM
same,GI50,[38],0.619 µM
same,TGI,[38],1.99 µM
same,GI50,[39],0.0794 µM
same,TGI,[39],0.941 µM
same,GI50,[40],1.55 µM
same,TGI,[40],2.9 µM
same,GI50,[41],1.42 µM
same,TGI,[41],3.2 µM
same,GI50,[42],1.08 µM
same,TGI,[42],2.32 µM
same,GI50,[43],0.353 µM
same,TGI,[43],1.76 µM
same,GI50,[44],0.977 µM
same,TGI,[44],2.18 µM
same,GI50,[45],0.574 µM
same,TGI,[45],2.01 µM
same,GI50,[46],1.72 µM
same,TGI,[46],3.13 µM
same,GI50,[47],1.37 µM
same,TGI,[47],2.7 µM
same,GI50,[48],0.0893 µM
same,TGI,[48],1.25 µM
same,GI50,[49],0.48 µM
same,TGI,[49],2.03 µM
same,GI50,[50],5.22 µM
same,TGI,[50],> 100 µM
same,GI50,[51],1.34 µM
same,TGI,[51],2.64 µM
same,GI50,[52],4.06 µM
same,TGI,[52],16.2 µM
same,GI50,[53],1.73 µM
same,TGI,[53],3.13 µM
same,GI50,[54],2.26 µM
same,TGI,[54],9.49 µM
same,GI50,[55],0.0568 µM
same,TGI,[55],1.28 µM
same,GI50,[56],1.48 µM
same,TGI,[56],2.81 µM
same,GI50,[57],0.0477 µM
same,TGI,[57],1.12 µM
same,GI50,[58],0.664 µM
same,TGI,[58],2.09 µM
CO[C@@H](C(=O)N1Cc2[nH]nc(NC(=O)c3ccc(N4CCN(C)CC4)cc3)c2C1)c1ccccc1,GI50,[1],0.113 µM
same,TGI,[1],2.64 µM
same,GI50,[2],9.18 µM
same,TGI,[2],28 µM
same,GI50,[4],0.237 µM
same,TGI,[4],1.42 µM
same,GI50,[5],2.29 µM
same,TGI,[5],> 100 µM
same,GI50,[6],0.822 µM
same,TGI,[6],12.9 µM
same,GI50,[7],0.676 µM
same,TGI,[7],10.5 µM
same,GI50,[8],1.21 µM
same,TGI,[8],9.85 µM
same,GI50,[9],0.0244 µM
same,TGI,[9],0.0639 µM
same,GI50,[11],0.334 µM
same,TGI,[11],2.04 µM
same,GI50,[12],11 µM
same,TGI,[12],25.4 µM
same,GI50,[13],0.12 µM
same,TGI,[13],25.2 µM
same,GI50,[14],1.7 µM
same,TGI,[14],9.22 µM
same,GI50,[15],0.561 µM
same,TGI,[15],20.1 µM
same,GI50,[16],0.737 µM
same,TGI,[16],3.53 µM
same,GI50,[17],1.71 µM
same,TGI,[17],16.9 µM
same,GI50,[18],0.0189 µM
same,TGI,[18],0.0445 µM
same,GI50,[19],2.41 µM
same,TGI,[19],18.6 µM
same,GI50,[20],9.89 µM
same,TGI,[20],26.3 µM
same,TGI,[21],2.8 µM
same,GI50,[22],1.7 µM
same,TGI,[22],54.4 µM
same,GI50,[23],0.547 µM
same,TGI,[23],2.79 µM
same,GI50,[24],3.17 µM
same,TGI,[24],16.7 µM
same,GI50,[25],2.36 µM
same,TGI,[25],> 100 µM
same,GI50,[26],12.7 µM
same,TGI,[26],30.3 µM
same,GI50,[59],15.5 µM
same,TGI,[59],29.1 µM
same,GI50,[27],0.899 µM
same,TGI,[27],12.5 µM
same,GI50,[28],0.0885 µM
same,TGI,[28],1.26 µM
same,GI50,[29],4.96 µM
same,TGI,[29],> 100 µM
same,GI50,[30],> 100 µM
same,TGI,[30],> 100 µM
same,GI50,[31],0.27 µM
same,TGI,[31],1.47 µM
same,GI50,[32],0.0466 µM
same,TGI,[32],1.51 µM
same,GI50,[33],1.05 µM
same,TGI,[33],15.8 µM
same,GI50,[34],1.23 µM
same,TGI,[34],25.6 µM
same,GI50,[35],2.53 µM
same,TGI,[35],15.1 µM
same,GI50,[36],0.0346 µM
same,TGI,[36],0.561 µM
same,GI50,[37],1.63 µM
same,TGI,[37],48.6 µM
same,GI50,[38],0.442 µM
same,TGI,[38],15.5 µM
same,GI50,[39],1.02 µM
same,TGI,[39],2.69 µM
same,GI50,[40],13.1 µM
same,TGI,[40],26.4 µM
same,GI50,[41],1.1 µM
same,TGI,[41],2.44 µM
same,GI50,[42],14.7 µM
same,TGI,[42],> 100 µM
same,GI50,[43],0.0371 µM
same,TGI,[43],13.7 µM
same,GI50,[44],0.33 µM
same,TGI,[44],1.69 µM
same,GI50,[45],0.848 µM
same,TGI,[45],13 µM
same,GI50,[46],0.451 µM
same,TGI,[46],24.4 µM
same,GI50,[47],1.59 µM
same,TGI,[47],17.8 µM
same,GI50,[49],11.2 µM
same,TGI,[49],24.6 µM
same,GI50,[50],0.623 µM
same,TGI,[50],4.91 µM
same,GI50,[51],0.642 µM
same,TGI,[51],15.2 µM
same,GI50,[52],2.67 µM
same,TGI,[52],18.7 µM
same,GI50,[53],0.566 µM
same,TGI,[53],23.9 µM
same,GI50,[54],16.9 µM
same,TGI,[54],32.9 µM
same,GI50,[55],0.175 µM
same,TGI,[55],10.9 µM
same,GI50,[56],0.769 µM
same,TGI,[56],2.09 µM
same,GI50,[57],0.327 µM
same,TGI,[57],1.46 µM
same,GI50,[58],0.0326 µM
same,TGI,[58],0.167 µM
